From patent US6043248A, “Alpha-substituted pyrimidine-thioalkyl and alkylether compounds as inhibitors of viral reverse transcriptase” (priority 1997, dated 2000) come the findings set out here.

Each structure is given as a SMILES string.

One assay concerns the target T1, P236L viral reverse transcriptase (Human immunodeficiency virus type 1 group M subtype B, UniProt P04585, P823L).
T1 construct: P236L viral reverse transcriptase is obtained by PNAS 90: 4713-4717 (1993); made in house
Briefly: inhibition of viral reverse transcriptase (P236L), cell free assay. The assay is classed as biochemical. To be noted: 30 minutes at 37° C., read-out: IC50 (Table I, P236L). An excerpt: (§1) The utility of the pyrimidine-thioalkyl and alkylether anti-AIDS compounds of Formula IA of this invention can be determined by their ability to inhibit viral reverse transcriptase, an enzyme essential for human immunodeficiency virus replication. This enzyme has characteristics which differentiate it from other known cellular polymerases and it is a unique enzyme which is not found in uninfected cells. Viral reverse transcriptase (Wild Type) is found in extracts from bacterial clones prepared according to the procedure described in AIDS Virus Reverse Transcriptase defined by high level expression in Escherichia coli, EMBO J. 6:3133-3137 (1987). P236L viral reverse transcriptase is obtained by PNAS 90: 4713-4717 (1993). Inhibition of this enzyme is determined in a cell free assay which measures the level of radioactive precursors incorporated into DNA. Extracts prepared according to the procedure of Science, 1125-1129 (1981) are incubated in a mixture of inhibitor, 20 mM dithiothreitol, 60 mM sodium chloride, 0.05% NP-40, 10 mM magnesium chloride, 50 mM Tris pH 8.3, 10 μM [^35 S]-labeled deoxynuleoside-5'-triphosphate, 10 μg/ml RNA template (poly rC or poly rG) and 5 μg/ml DNA primer (oligo dG or oligo dT) for 30 minutes at 37° C. Incorporation of radio-labeled percursor is determined by spotting aliquots of the reaction mixture on DE81 paper, washing the papers to remove unincorporated percursor, drying and determining counts. The results (IC50 means the concentration, in μM of drug, required to inhibit the reverse transcriptase activity (P236L and Wild Type) to the extent of 50%) of various assay(s) are combined and reported as % inhibition and/or IC50 (calculated) in Table I (P236L) and Table II (Wild Type).
As to `Nc1cc(Cl)nc(SCc2ccc(Cl)c(Cl)c2)n1` [Example 49, 4-amino-6-chloro-2-(3,4-dichlorophenylmethylthio)-pyrimidine], the IC50 is 60 nM.
Same read-out and setting: to `Nc1cc(Cl)nc(SCc2cc3ccccc3cn2)n1` [Example 182, 4-Amino-6-chloro-2-[(isoquinolin-3-ylmethyl)thio]pyrimidine] belongs 20 nM; to `CCOc1ccnc(CSc2nc(N)cc(Cl)n2)c1` [Example 115, 4-amino-6-chloro-2-[2-(4-ethoxy)pyridylmethylthio]-pyrimidine], 50 nM; to `Nc1cc(Cl)nc(SCC(=O)c2ccccc2)n1` [Example 100, 4-amino-6-chloro-2-[2-(1-phenyl-1-ethanon)thio]-pyrimidine], 2000 nM.
The same measure, in the same setting: to `CC(C)Oc1ccnc(CSc2nc(N)cc(Cl)n2)c1` [Example 126, 4-amino-6-chloro-2-[2-(4-isopropoxy)pyridylmethylthio]-pyrimidine] belongs 50 nM; to `Nc1cc(Cl)nc(SCC2=CCCc3ccccc32)n1` [Example 187, 4-Amino-6-chloro-2-[[(3,4-dihydro-1-naphthalenyl)methyl]thio]pyrimidine], 600 nM.
On the same count and under the same terms, to `Nc1ccnc(SCc2ccc3ccccc3c2)n1` [Example 98, 4-amino-2-(2-naphthylmethylthio)-pyrimidine] belongs 5000 nM.
For the compound `NC(=O)c1ccnc(CSc2nc(N)cc(Cl)n2)c1` [Example 163, 4-amino-6-chloro-2-[2-(4-carboxamido)-pyridylmethylthio]-pyrimidine], the IC50 came to 20000 nM.
Still for that read-out and setting: the result for `Nc1cc(Cl)nc(SCc2ccc(Cl)s2)n1` [Example 144, 4-Amino-6-chloro-2-[(5-chlorothiophen-2-ylmethyl)thio]pyrimidine] reads 5000 nM; that for `Nc1cc(Cl)nc(SCc2ccc3cccnc3c2)n1` [Example 184, 4-Amino-6-chloro-2-[(quinolin-7-ylmethyl)thio]pyrimidine], 3000 nM; that for `Nc1cc(Cl)nc(SCc2cc(Br)cc(Br)c2)n1` [Example 52, 4-amino-6-chloro-2-(3,5-dibromophenylmethylthio)-pyrimidine], 200 nM.
Same read-out and setting: to `N#Cc1ccnc(CSc2nc(N)cc(Cl)n2)c1` [Example 128, 4-amino-6-chloro-2-[2-(4-cyano)pyridylmethylthio]-pyrimidine] belongs 1000 nM.
Still for that read-out and setting: the result for `Cc1cc(C)nc(CSc2nc(N)cc(Cl)n2)n1` [Example 127, 4-amino-6-chloro-2-[2-(4,6-dimethyl)pyrimidinylmethylthio]-pyrimidine] reads 1000 nM; that for `CCCNc1cc(Cl)nc(SCc2ccccc2)n1` [Example 87, 4-propylamino-6-chloro-2-(benzylthio)-pyrimidine], 100000 nM.
For the compound `Cc1cccc(CSc2nc(N)cc(Cl)n2)c1` [Example 36, 4-amino-6-chloro-2-(3-methylphenylmethylthio)-pyrimidine], the IC50 amounted to 50 nM.
As for `Nc1cc(Cl)nc(SCc2ccnc3ccccc23)n1` [Example 181, 4-Amino-6-chloro-2-[(quinolin-4-ylmethyl)thio]pyrimidine], the IC50 was found to be 1000 nM.
The same measure, in the same setting: to `Nc1cc(Cl)nc(SCc2cc(Cl)ccn2)n1` [Example 111, 4-amino-6-chloro-2-[2-(4-chloro)-5 pyridylmethylthio]-pyrimidine] belongs 30 nM; to `Cc1cc(Cl)nc(CSc2nc(N)cc(Cl)n2)c1` [Example 125, 4-amino-6-chloro-2-[2-(6-chloro-4-methyl)pyridylmethylthio]-pyrimidine], 50 nM.
The same measure, in the same setting: the result for `CC(C)c1ccnc(CSc2nc(N)c(Br)c(Cl)n2)c1` [Example 166, 4-amino-5-bromo-6-chloro-2-[2-(4-isopropyl)pyridylmethylthio]-pyrimidine] reads 20 nM.
For the compound `COc1c(N)nc(SCc2ccc3ccccc3c2)nc1Cl` [Example 89, 4-amino-5-methoxy-6-chloro-2-(2-naphthylmethylthio)-pyrimidine], the IC50 was found to be 5000 nM.
On the same count and under the same terms, to `Nc1ccnc(SCc2cccc(Br)c2)n1` [Example 95, 4-amino-2-(3-bromophenylmethylthio)-pyrimidine] belongs 1000 nM.
For `Cc1cncc(CSc2nc(N)cc(Cl)n2)n1` [Example 173, 4-Amino-6-chloro-2-[(6-methylpyrazin-2-ylmethyl)thio]pyrimidine], the IC50 was found to be 10000 nM.
Turning to `Nc1cc(Cl)nc([S+]([O-])Cc2ccc3ccccc3c2)n1` (stereo not drawn) [Example 68, 4-amino-6-chloro-2-(2-naphthylmethylsulfinyl)-pyrimidine], the IC50 is 5000 nM.
Still for that read-out and setting: to `Nc1cc(Cl)nc(SCc2cc(Br)ccn2)n1` [Example 119, 4-amino-6-chloro-2-[2-(4-bromo)pyridylmethylthio]-pyrimidine] belongs 40 nM.
On the same count and under the same terms, the result for `Cc1ccccc1CSc1nc(N)cc(Cl)n1` [Example 35, 4-amino-6-chloro-2-(2-methylphenylmethylthio)-pyrimidine] reads 300 nM; that for `Nc1cc(Cl)nc(SCc2cc(Cl)cc(Cl)c2)n1` [Example 50, 4-amino-6-chloro-2-(3,5-dichlorophenylmethylthio)-pyrimidine], 330 nM; that for `Cc1ccnc(CSc2nc(N)c(Br)c(Cl)n2)c1` [Example 165, 4-amino-5-bromo-6-chloro-2-[2-(4-methyl)pyridylmethylthio]-pyrimidine], 50 nM.

The target in a further assay is T2, viral reverse transcriptase (Wild Type) (Human immunodeficiency virus type 1 group M subtype B, UniProt P04585).
T2 construct: Viral reverse transcriptase (Wild Type) is found in extracts from bacterial clones; made in house; host or cells: Escherichia coli
In words: inhibition of viral reverse transcriptase (Wild Type), cell free assay. In kind it is biochemical. To be noted: 30 minutes at 37° C.
Excerpt: as §1
Consider `CCCCC(Sc1nc(N)cc(Cl)n1)c1cc(C)ccn1` (stereo not drawn) [Example 224, 4-Amino-6-chloro-2-(1-(4-methyl-2-pyridyl)pentyl)thio-pyrimidine], for which the “IC50 (Table II, Wild Type)” value was “INACTIVE”.

The same assay, now with this note: 30 minutes at 37° C., read-out: IC50 (Table II, Wild Type).
Take `CCc1coc2c(Cl)nc(C(C)Sc3nc(N)cc(Cl)n3)cc12` (stereo not drawn) [Example 251, 4-Amino-6-chloro-2-(1-(7-chloro-3-ethylfuro-[2,3c]pyridine-5yl)ethyl)thio-pyrimidine]: the IC50 was found to be 144 nM.

Still in this assay, the particulars now being: @ 1 μM.
`CC(Sc1nc(N)c(Br)c(Cl)n1)c1cc2ccccc2cn1` (stereo not drawn) [Example 231, 4-Amino-5-bromo-6-chloro-2-(1-(3-isoquinolyl)ethyl)thio-pyrimidine] gave an inhibition at 1 µM of 78%.
For the compound `CC(=O)c1ccnc(C(C)Sc2nc(N)cc(Cl)n2)c1` (stereo not drawn) [Example 219, 4-Amino-6-chloro-2-(1-(4-acetyl-2-pyridyl)ethyl)thio-pyrimidine], the inhibition at 1 µM was 84%.
`Cc1ccnc(C(C#N)Sc2nc(N)cc(Cl)n2)c1` (stereo not drawn) [Example 217, 4-Amino-6-chloro-2-(1-(4-methyl-2-pyridyl)-1-cyanomethyl)thio-pyrimidine] came in with an inhibition at 1 µM of 58%.
Same read-out and setting: to `CC(Sc1nc(N)cc(Cl)n1)c1nccc2ccccc12` (stereo not drawn) [Example 232, 4-Amino-6-chloro-2-(1-(1-isoquinolyl)ethyl)thio-pyrimidine] belongs 90%; to `CCCN(CCC)C(=O)/C=C/CSc1nc(N)cc(Cl)n1` [Example 202, (E)-N,N-Dipropyl-4-[(4-amino-6-chloro-2-pyrimidinyl)thio]-2-butenamide], 62%; to `Nc1cc(Cl)nc(SC/C=C/C(=O)N2CCCC2)n1` [Example 199, (E)-1-[4-[(4-amino-6-chloro-2-pyrimidinyl)thio]-1-oxo-2-butenyl]pyrrolidine], 93%.
For `CC(Sc1nc(N)cc(Cl)n1)c1nccc2c1CCCC2` (stereo not drawn) [Example 235, 4-Amino-6-chloro-2-(1-(1-(5,6,7,8-tetrahydroisoquinolyl))-ethyl)thiopyrimidine], the inhibition at 1 µM came out at 90%.
The same measure, in the same setting: the result for `CCC(Sc1nc(N)cc(Cl)n1)c1cc(C)ccn1` (stereo not drawn) [Example 218, 4-Amino-6-chloro-2-(1-(4-methyl-2-pyridyl)propyl)thio-pyrimidine] reads 84%.

The same assay, now with this note: @ 10 μM.
On to `CC(Sc1nc(N)cc(Cl)n1)c1ccc2ccccc2c1` (stereo not drawn) [Example 229, 4-Amino-6-chloro-2-(1-(2-naphthalenyl)ethyl)thio-pyrimidine], for which the inhibition at 10 µM is 90%.
The compound `CC(C)(Sc1nc(N)cc(Cl)n1)c1ccccn1` [Example 212, 4-Amino-6-chloro-2-(1-(2-pyridyl)-1-methylethyl)thio-pyrimidine] returned an inhibition at 10 µM of 57%.
Still for that read-out and setting: the result for `Nc1cc(Cl)nc(SC/C=C/C(=O)N2CCCCC2)n1` [Example 197, (E)-1-[4-[(4-amino-6-chloro-2-pyrimidinyl)thio]-1-oxo-2-butenyl]piperidine] reads 83%; that for `CCN(CC)Cc1ccnc(C(C)Sc2nc(N)cc(Cl)n2)c1` (stereo not drawn) [Example 228], 84%.

Still in this assay, the particulars now being: @ 50 μM.
`CC(Sc1nc(N)cc(Cl)n1)c1cc(CN2CCOCC2)ccn1` (stereo not drawn) [Example 227, 4-Amino-6-chloro-2-(1-(4-(4-morpholinyl)methyl-2-pyridyl)ethyl)thio-pyrimidine] yielded an inhibition at 50 µM of 49%.
